Source: patent publication US20110039762A1, “TARGETED ANTIMICROBIAL MOIETIES” (C3 JIAN, INC., priority 2009, published 2011)
In brackets after ≈: the same amount, converted by molar mass. Where two headings read alike, the source gives them in different places. Bridge positions count the residues as written; N and C are the ends. Square brackets hold non-standard residues; d marks the D form. Ends that are not written are not given here. Peptide text beside a SMILES is read from it. I, II: the chains in the order shown. Aoc = NCCCCCCCC(=O)O

Experiments:
[1] = tested on: Mixed planktonic populations of P. aeruginosa, E. coli, S. epidermidis, and S. mutans; assay: Microbial population shift assay; assay type: cell-based; conditions: 10 μM peptide, 24 h
Protocol: Peptide (10 μM) or mock-treatment (1× PBS) was then added and samples were incubated at 37° C. for 24 h under anaerobic conditions (80% N2, 15% CO2, 5% H2). […] Plates were then incubated 37° C. under aerobic conditions (TH plates were incubated anaerobically) and colonies counted after 24 h to determine survivors. […] Gram stains and direct microscopic observation (from select isolated colonies) were undertaken to confirm species identity (data not shown). The detection limit of the assay was 200 cfu/mL.

S. mutans [2] = assay: Post-antibiotic effect assay (growth retardation after 10 min exposure); assay type: cell-based, Streptococcus mutans; conditions: S. mutans monoculture, peptide 10 min, then fresh medium
Protocol: The activity and selectivity of MH-STAMPs after a 10 min incubation was determined by growth retardation experiments against targeted and untargeted bacteria in monocultures, as described previously (Id.). Cells from overnight cultures were diluted to ˜5×10^6 cfu/mL in MH (or TH with 1% sucrose for S. mutans), normalized by OD600 0.05-0.1 and seeded to 96-well plates. Cultures were then grown under the appropriate conditions for 2 h (3 h for S. mutans) prior to the addition of peptides for 10 min. Plates were then centrifuged at 3000×g for 5 min, the supernatants discarded, fresh medium returned (MH or TH without sucrose for S. mutans), and incubation resumed. Bacterial growth after treatment was then monitored over time by OD600.

S. mutans [3] = assay type: cell-based, Streptococcus mutans
[4] = tested on: Klebsiella pneumoniae KAY 2026; assay type: cell-based
Protocol: (§1) Aerobic Gram-negative organisms were grown in Lauri-Bertaini (LB) broth and Gram-positive bacteria in Brain-heart infusion (BHI) broth. Streptococcus mutans JM11 (spectinomycin resistant, UA140 background) was grown in Todd-Hewitt (TH) broth under anaerobic conditions (80% N2, 15% CO2, 5% H2) at 37° C. Merritt et al. (2005) J Microbiol Meth., 61: 161-170. All bacteria were grown overnight to an OD600 of 0.8-1.0 prior to appropriate dilution and antimicrobial testing.
(§2) Briefly, ˜1×10^5 cfu/mL bacteria were diluted in TH (S. mutans), or Mueller-Hinton (MH) broth (all other organisms) and distributed to 96-well plates. Serially-diluted (2-fold) peptides were then added and the plates incubated at 37° C. for 18-24 h. […] All experiments were conducted 10 times.

[5] = tested on: Staphylococcus aureus Newmann; assay type: cell-based
Protocol: as §1, §2

S. epidermidis [6] = assay type: cell-based, Staphylococcus epidermidis
In short: (§3)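 ~1×10^5 cfu/mL inoculum, MH broth; peptides 2-fold serial dilution; 37° C., 18-24 h; n=10; NCCLS M7-A3 method.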

E. coli [7] = assay type: cell-based, Escherichia coli
Protocol: (§4) Typically, the in vitro antimicrobial activity of antimicrobial agents is tested using standard NCCLS bacterial inhibition assays, or MIC tests (see, National Committee on Clinical Laboratory Standards “Performance Standards for Antimicrobial Susceptibility Testing,” NCCLS Document M100-S5 Vol. 14, No. 16, December 1994; “Methods for dilution antimicrobial susceptibility test for bacteria that grow aerobically-Third Edition,” Approved Standard M7-A3, National Committee for Clinical Standards, Villanova, Pa.).
as §2

P. aeruginosa [8] = assay type: cell-based, Pseudomonas aeruginosa
Protocol: as §4, §2

microorganisms = assay: Peptides having multiple activities (targeting/binding, antimicrobial, growth or phenotype altering)
From the text: In certain embodiments, peptides described herein can have multiple activities. Thus for example, a peptide can have both binding/targeting activity and antimicrobial activity. Such peptides can be used, e.g., in a chimeric construct, for any or all of these properties. Thus, for example, a peptide designated “B” in Table 8 can be used as a targeting peptide. If it is also designated G or M it can also be used for antimicrobial activity.

MRSA [9] = assay: MIC (broth microdilution); assay type: cell-based, Methicillin-resistant Staphylococcus aureus
In short: as §3

C. jeikeium [10] = assay: MIC (broth microdilution); assay type: cell-based, Corynebacterium jeikeium
Protocol: as §4, §2

T. rubrum = assay: MIC (broth microdilution); assay type: cell-based, Trichophyton rubrum
Protocol: as §4, §2

M. luteus = assay: Kill or inhibit growth/proliferation; morphology, biofilm and growth disruption (Tables 5, 6); assay type: cell-based, Micrococcus luteus; set-up: key: A: Peptide aggregates; B: Less hyphal formation; Clumps; Diffuse clumps and small polyps; F: Diffuse growth; H: Thin; I: Growth inhibition; Microcolony formation; Rippled; Small polyps; Thick; W: Halo formation on top, microlonies on bottom
B. subtilis [11] = assay: MIC (broth microdilution); assay type: cell-based, Bacillus subtilis
In short: as §3

P. aeruginosa [12] = assay: Kill or inhibit growth/proliferation; morphology, biofilm and growth disruption (Tables 5, 6); assay type: cell-based, Pseudomonas aeruginosa; set-up: key: A: Peptide aggregates; B: Less hyphal formation; Clumps; Diffuse clumps and small polyps; F: Diffuse growth; H: Thin; I: Growth inhibition; Microcolony formation; Rippled; Small polyps; Thick; W: Halo formation on top, microlonies on bottom
C. albicans = assay: as above; assay type: cell-based, Candida albicans; set-up: key: A: Peptide aggregates; B: Less hyphal formation; Clumps; Diffuse clumps and small polyps; F: Diffuse growth; H: Thin; I: Growth inhibition; Microcolony formation; Rippled; Small polyps; Thick; W: Halo formation on top, microlonies on bottom
S. epidermidis [13] = assay: as above; assay type: cell-based, Staphylococcus epidermidis; set-up: key: A: Peptide aggregates; B: Less hyphal formation; Clumps; Diffuse clumps and small polyps; F: Diffuse growth; H: Thin; I: Growth inhibition; Microcolony formation; Rippled; Small polyps; Thick; W: Halo formation on top, microlonies on bottom
C. jeikeium [14] = assay: as above; assay type: cell-based, Corynebacterium jeikeium; set-up: key: A: Peptide aggregates; B: Less hyphal formation; Clumps; Diffuse clumps and small polyps; F: Diffuse growth; H: Thin; I: Growth inhibition; Microcolony formation; Rippled; Small polyps; Thick; W: Halo formation on top, microlonies on bottom
B. subtilis [15] = assay: as above; assay type: cell-based, Bacillus subtilis; set-up: key: A: Peptide aggregates; B: Less hyphal formation; Clumps; Diffuse clumps and small polyps; F: Diffuse growth; H: Thin; I: Growth inhibition; Microcolony formation; Rippled; Small polyps; Thick; W: Halo formation on top, microlonies on bottom
S. pneumoniae = assay: as above; assay type: cell-based, Streptococcus pneumoniae; set-up: key: A: Peptide aggregates; B: Less hyphal formation; Clumps; Diffuse clumps and small polyps; F: Diffuse growth; H: Thin; I: Growth inhibition; Microcolony formation; Rippled; Small polyps; Thick; W: Halo formation on top, microlonies on bottom
C. jejuni = assay: as above; assay type: cell-based, Campylobacter jejuni; set-up: key: A: Peptide aggregates; B: Less hyphal formation; Clumps; Diffuse clumps and small polyps; F: Diffuse growth; H: Thin; I: Growth inhibition; Microcolony formation; Rippled; Small polyps; Thick; W: Halo formation on top, microlonies on bottom
MRSA [16] = assay: as above; assay type: cell-based, Methicillin-resistant Staphylococcus aureus; set-up: key: A: Peptide aggregates; B: Less hyphal formation; Clumps; Diffuse clumps and small polyps; F: Diffuse growth; H: Thin; I: Growth inhibition; Microcolony formation; Rippled; Small polyps; Thick; W: Halo formation on top, microlonies on bottom
A. niger = assay: MIC (broth microdilution); assay type: cell-based, Aspergillus niger
In short: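 2-fold dilution series of peptides in 96-well plates, inoculated at about 1×10^5 cfu/mL in MH broth, following NCCLS standards. Plates held 18–24 h at 37 °C; each run repeated 10 times.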

E. coli [17] = assay: Kill or inhibit growth/proliferation; morphology, biofilm and growth disruption (Tables 5, 6); assay type: cell-based, Escherichia coli; set-up: key: A: Peptide aggregates; B: Less hyphal formation; Clumps; Diffuse clumps and small polyps; F: Diffuse growth; H: Thin; I: Growth inhibition; Microcolony formation; Rippled; Small polyps; Thick; W: Halo formation on top, microlonies on bottom
A. baumannii = assay: MIC (broth microdilution); assay type: cell-based, Acinetobacter baumannii
Protocol: as §4, §2

C. difficile = assay: MIC (broth microdilution); assay type: cell-based, Clostridium difficile
Protocol: as §4, §2

CC[C@H](C)[C@H](NC(=O)[C@H](Cc1ccccc1)NC(=O)CCCCCCCNC(=O)[C@H](CCCCNC(=O)CNC(=O)CNC(=O)CNC(=O)[C@H](Cc1c[nH]cn1)NC(=O)[C@H](CCCCN)NC(=O)[C@H](CCCNC(=N)N)NC(=O)[C@H](Cc1c[nH]cn1)NC(=O)[C@H](CCCCN)NC(=O)[C@H](CCCNC(=N)N)NC(=O)[C@H](Cc1c[nH]cn1)NC(=O)[C@H](CCCCN)NC(=O)[C@H](CCCNC(=N)N)NC(=O)[C@H](Cc1c[nH]cn1)NC(=O)[C@H](CCCCN)NC(=O)[C@@H](N)CCCCN)NC(=O)CNC(=O)CNC(=O)CNC(=O)[C@H](C)NC(=O)[C@H](CCC(=O)O)NC(=O)[C@H](CC(N)=O)NC(=O)[C@H](C)NC(=O)[C@H](C)NC(=O)[C@H](CC(=O)O)NC(C)=O)C(=O)N[C@@H](CCCNC(=N)N)C(=O)N[C@@H](CCCCN)C(=O)N[C@@H](Cc1ccccc1)C(=O)N[C@@H](CC(C)C)C(=O)N[C@@H](CCCCN)C(=O)N[C@@H](CCCCN)C(=O)N[C@@H](Cc1c[nH]c2ccccc12)C(=O)N[C@@H](CC(C)C)C(=O)N[C@@H](CC(C)C)C(N)=O [BL(KH)-20] (I: Ac-DAANEAGGGK[Aoc]FIRKFLKKWLL-NH2 / II: H-KKHRKHRKHRKHGGG; amide I:10-II:C)
recoverable (surviving) cfu/mL ([1]; E. coli in mixed culture): unchanged numbers | recoverable (surviving) cfu/mL ([1]; P. aeruginosa in mixed culture): not observed | recoverable (surviving) cfu/mL ([1]; S. epidermidis in mixed culture): unchanged numbers | recoverable (surviving) cfu/mL ([1]; S. mutans in mixed culture): higher than input cfu/mL | bacterial growth (OD600) after treatment (S. mutans [2]): not altered | MIC (S. mutans [3]): 6.25 µM (≈ 27.3 µg/mL) | MIC [4]: 6.25 µM (≈ 27.3 µg/mL) | MIC [5]: 6.25 µM (≈ 27.3 µg/mL) | MIC (S. epidermidis [6]): 6.25 µM (≈ 27.3 µg/mL) | MIC (E. coli [7]): 6.25 µM (≈ 27.3 µg/mL) | MIC (P. aeruginosa [8]): 27.5 ± 7.90 µM (≈ 120 µg/mL)

GSVIKKRRKRMAKKKHRKLLKKTRIQRRRAGK [PF-527]
Activities (microorganisms): G B M | MIC (MRSA [9]): MRSA , 50 μM | MIC (C. jeikeium [10]): C. jeikeium, 6.25 μM | MIC (T. rubrum): T. rubrum, 25 μM | Organism, effect (M. luteus): M. luteus (S) | MIC (B. subtilis [11]): B. subtilis, 12.5 μM | Organism, effect (P. aeruginosa [12]): P. aeruginosa (I) | Organism, effect (C. albicans): C. albicans (B) | Organism, effect (S. epidermidis [13]): S. epidermidis (M) | MIC (S. epidermidis [6]): S. epidermidis, 25 μM | MIC (P. aeruginosa [8]): P. aeruginosa, 50 μM | Organism, effect (C. jeikeium [14]): C. jeikeium (I) | Organism, effect (B. subtilis [15]): B. subtilis (I) | Organism, effect (S. pneumoniae): S. pneumoniae (H) | Organism, effect (C. jejuni): C. jejuni (M) | Organism, effect (MRSA [16]): MRSA (I) | MIC (A. niger): A. niger, 50 μM

YIQFHLNQQPRPKVKKIKIFL-NH2 [PF-531]
Activities (microorganisms): G M | Organism, effect (E. coli [17]): E. coli (M) | MIC (C. jeikeium [10]): C. jeikeium, 6.25 μM | MIC (T. rubrum): T. rubrum, 50 μM | MIC (B. subtilis [11]): B. subtilis, 25 μM | Organism, effect (P. aeruginosa [12]): P. aeruginosa (I) | MIC (S. mutans [3]; S. mutans): S. mutans, 12.5 μM | MIC (A. baumannii): A. baumannii, 25 μM | Organism, effect (S. epidermidis [13]): S. epidermidis (I) | MIC (S. epidermidis [6]; S. epidermidis): S. epidermidis, 50 μM | MIC (C. difficile): C. difficile, 12.5 μM | MIC (P. aeruginosa [8]; P. aeruginosa): P. aeruginosa, 50 μM | Organism, effect (S. pneumoniae): S. pneumoniae (C) | MIC (A. niger): A. niger, 25 μM
